EP0987023A1, “Transition metal complexes of non steroidal anti-inflammatory drugs” (PANACEA BIOTEC LIMITED, priority 1998, dated 2000)
Read-outs that look alike come from different tables or passages of the source.

How the values were obtained:
[1] = collected values of NSAIDs; cited from earlier work
[2] = collected values of NSAIDs; cited from earlier work; remark: listed apart in the source
[3] = test system: Cyclooxygenase 2/Cyclooxygenase 1; settings: cited from earlier work
[4] = in words; pre-treatment; Navarro et al. 1994; cited from earlier work
[5] = test system: Carageenan - induced rat paw edema; assay: Carageenan-induced rat paw edema (anti-inflammatory activity); type: in vivo; settings: in words, compared to parent drug
[6] = IC50 (µg/ml) of COX2 divided by IC50 for COX1, values below 1 indicate selectivity for COX2, from Drugs of Today Vol. 32 Suppl. D 1996 p. 5

CC(=O)Oc1ccccc1C(=O)O [Acetylsalicylic acid]
ED50 [1]: 135.0 mg/kg | LD50 [2]: 1520 mg/kg | Therapeutic Index [2]: 14 | Cyclooxygenase 2/Cyclooxygenase 1 ratio [3, 6]: 166

CC(C(=O)O)c1ccc(-c2ccccc2)c(F)c1 (stereo not drawn) [Flurbiprofen]
Cyclooxygenase 2/Cyclooxygenase 1 ratio [3]: 1.3

O=C(O)c1ccccc1Nc1cccc(C(F)(F)F)c1 [Flufenamic acid]
ED50 [1]: 14.7 mg/kg | LD50 [2]: 249 mg/kg | Therapeutic Index [2]: 17

Cc1c(Cl)cccc1Nc1ccccc1C(=O)O [Tolfenamic acid]
Cyclooxygenase 2/Cyclooxygenase 1 ratio [3, 6]: 16.7

CC(=O)Nc1ccc(O)cc1 [Paracetamol]
Cyclooxygenase 2/Cyclooxygenase 1 ratio [3, 6]: 7.4

O=C([O-])c1ccccc1O.[Na+] [Sodium salicylate]
Cyclooxygenase 2/Cyclooxygenase 1 ratio [3, 6]: 2.8

COc1ccc2cc([C@H](C)C(=O)O)ccc2c1 [Naproxen, (+) -2-(6-Methoxy-2-haphthyl) propionic acid]
ED50 [1]: 2.10 mg/kg

CC(C)Cc1ccc(C(C)C(=O)O)cc1 (stereo not drawn) [Ibuprofen]
ED50 [1]: 13.5 mg/kg | LD50 [2]: 923 mg/kg

CC1=C(CC(=O)O)c2cc(F)ccc2/C1=C\c1ccc([S+](C)[O-])cc1 (stereo not drawn) [Sulindac]
Cyclooxygenase 2/Cyclooxygenase 1 ratio [3, 6]: 100

CN1C(C(=O)Nc2ccccn2)=C(O)c2ccccc2S1(=O)=O [Piroxicam]
Cyclooxygenase 2/Cyclooxygenase 1 ratio [3]: 250

CS(=O)(=O)Nc1ccc([N+](=O)[O-])cc1Oc1ccccc1 [Nimesulide]
ED50 [1]: 1.25 mg/kg

CC(=O)NCCCCCC(=O)[O-].CC(=O)NCCCCCC(=O)[O-].[Zn+2] [Zinc acexamate]
overall Severity of lessions induced by NSAIDS [4]: significantly decreased

O=C(c1ccccc1)c1cccc(NS(=O)(=O)C(F)F)c1 [Diflumidone]
ED50 [1]: 38.0 mg/kg | LD50 [2]: 750 mg/kg | Therapeutic Index [2]: 20

CC(C(=O)O)c1ccc2c(c1)[nH]c1ccc(Cl)cc12 (stereo not drawn) [Carprofen]
Cyclooxygenase 2/Cyclooxygenase 1 ratio [3]: 1

Cc1ccc(C(=O)c2ccc(CC(=O)O)n2C)cc1 [Tolmetin]
Cyclooxygenase 2/Cyclooxygenase 1 ratio [3, 6]: 175

O=C([O-])Cc1ccccc1Nc1c(Cl)cccc1Cl.O=C([O-])Cc1ccccc1Nc1c(Cl)cccc1Cl.[Zn+2] [Diclofenac-Zinc]
anti-inflammatory activity ([5]; listed as Diclofenac-Zinc complex): much more than the parent drug | anti-inflammatory activity ([5]; listed as Zinc-diclofenac complex): more potent anti-inflammatory activity than diclofenac

COc1ccc2c(c1)c(CC(=O)O)c(C)n2C(=O)c1ccc(Cl)cc1 [Indomethacin]
ED50 [1]: 2.95 mg/kg | LD50 [2]: 210 mg/kg
